In test [1] the test system is Cryptosporidium parvum. Nature of the test: In vitro Crytosporidium inhibition assay. It is filed as cell-based. The note with it: Cryptosporidium parvum; read-out: Cryptosporidium parvum pEC50 (converted). The text has this: Assay Method for Measurement of In Vitro Inhibition of Crytosporidium.
These experiments were run in accordance with the method of Besssoff et. al. Antimicrob. Agents Chemother. 2013, 57:1804-1814. Results from these experiments are provided in the Experimental Results hereinafter.

Test [2] relates to Hep G2. The test can be described thus: Hep G2 in-vitro cytotoxicity assay. It is filed as cell-based. The note with it: Homo sapiens, HepG2, read-out: Hs HEPG2 pEC50 (converted). The source says: In-vitro cytotoxicity studies can be carried out using Hep G2 (Human hepatocyte carcinoma, HPACC cat. no. 85011430) used as indicators for general mammalian cell toxicity. Hep G2 in-vitro cytotoxicity can be assessed using the assay procedure as described in “Use of a human-derived liver cell line for the detection of cytoprotective, antigenotoxic and cogenotoxic agents”, Volker Mersch-Sundermann, Siegfried Knasmüller, Xin-jiang Wu, Firouz Darroudi, Fekadu Kassie. J. Tox 198 (2004) 329-340) the contents of which are incorporated herein by reference.

The test system of test [3] is Trypanosoma cruzi. The test can be described thus: Trypanosoma cruzi intracellular imaging assay. Type of test: cell-based. Particulars: read-out: Trypanosoma cruzi pEC50 (converted). The source says:
Assay Method for Measurement of In Vitro Inhibition of Trypanosoma cruzi. […] These experiments were run in accordance with the method of Pena et. al., Scientific Reports 5, Article number: 8771 (2015). Results from these experiments are provided in the Experimental Results hereinafter.

Test [4] deals with T1, Plasmodium falciparum lysyl t-RNA synthetase (Pf-KRS1) (Plasmodium falciparum, UniProt Q8IDJ8).
T1 construct: Pf KRS1-; made in house; host or cells: E. coli BL21 (DE3)
Nature of the test: Pf-KRS1 inhibition biochemical assay (Kinase-Glo, ATP depletion). The note with it: read-out: Pf-KRS pIC50 (converted). The source says: Plasmodium falciparum Lysine tRNA Synthetase (KRS1) Biochemical Assay Methodology.
Lysine tRNA Synthetase (KRS1) is an enzyme which catalyses the esterification of L-Lysine to the appropriate transfer ribonucleic acid (tRNA), to form an aminoacyl-tRNA. Once the tRNA is charged, a ribosome transfers the amino acid from the tRNA onto a growing peptide, according to the genetic code.
The substrates of this reaction are L-lysine, and adenosine triphosphate (ATP), the overall reaction is: amino acid+tRNA+ATP→aminoacyl-tRNA+AMP+PPi
In this overall reaction AMP is adenosine monophosphate and PP; is inorganic pyrophosphate. The reaction progression in a biochemical assay can be tracked by the depletion of one of the substrates, in the case of this invention, ATP. This was done using the proprietary assay kit, Kinase Glo® Assay which is a luminescent kinase assay platform suitable for monitoring kinase activities using up to 10 μm ATP which is commercially available from the Promega Corporation of Madison, Wis., USA. The Kinase-Glo® Assay was performed in a single well of a multiwell plate by adding a volume of Kinase-Glo® Reagent equal to the volume of a completed kinase reaction and measuring luminescence. The resulting luminescent signal is correlated with the amount of ATP present and is inversely correlated with the amount of kinase activity. As such by use of this assay methodology a reduction of the luminescent signal is relative to the reduction in ATP as the reaction progresses. A compound which inhibits the action of KRS will show no drop in the luminescent signal from assay controls.
Assays were performed using both Plasmodium falciparum and human KRS to assess any selectivity of various test compounds.
Test compounds were solubilized in DMSO at a top concentration of 10 mM and serially diluted 1 in 3 to achieve a range of final assay concentrations of 50 μM to 2.5 nM in 10 μl reaction volume.
KRS was diluted to a working concentration of 75 nM in assay buffer (25 mM HEPES, 25 mM KOH, 10 mM MgCl2.6H2O, 50 mM KCl), and the following ‘Master Mix’ prepared in assay buffer: 0.1 mg/ml BSA, 250 μM DTT, 200 μM Spermine, 0.05% NP-40, ATP 3 μM for Pf KRS1 (4 μM for Hs KRS1), 0.4 mg/ml tRNA from Yeast, 60 μM L-Lysine, 0.5 U/ml Pyrophosphatase.
Plates were incubated at room temperature for 5 h for Pf KRS (2.5 hrs for HsKRS), then the assay stopped by the addition of 10 μl of The Kinase-Glo® Reagent Assay was performed in a single well of a multiwell plate by adding a volume of Kinase-Glo® Reagent which is commercially available from the Promega Corporation of Madison, Wis., USA. The plates were incubated in the dark for a further 15 mins before being read for luminescence on a BMG PHERAstar® FSX plate reader which is a multi-mode reader for use in high-throughput screening available from BMG Labtech if Cary, N.C., USA. Data were analysed by calculating the percentage inhibition compared to the maximum and minimum assay controls. Concentration effect curves were fitted using nonlinear regression within ActivityBase and IC50 values were determined using standard protocols.
In general terms: Kinase-Glo measures the ATP left after a reaction by luminescence.

Test [5] relates to Plasmodium falciparum strain 3D7. Nature of the test: Plasmodium falciparum 3D7 in vitro growth inhibition (SYBRgreen I). Type of test: cell-based. The note with it: Plasmodium falciparum, 3D7; read-out: pEC50 for Pf 3D7 (converted). As to the method: Parasite Cultures and Cytotoxicity Assay Methodology for Plasmodium falciparum. […] Growth inhibition of the Plasmodium falciparum cultures was quantified in a 10-point dose response curve with a 1 in 3 dilution series from a top assay concentration of 50 μM. This 384 well plate based fluorescence assay utilises the binding of SYBRgreen I (Thermo Fisher Scientific/Invitrogen cat. no. S7585) to double stranded DNA, which greatly increases the fluorescent signal at 528 nm after excitation at 485 nm. Mefloquine was used as a drug control to monitor the quality of the assay (Z′=0.6 to 0.8, where Z′ is a measure of the discrimination between the positive and negative controls on a screen plate). Dose-response curves were determined from a minimum of 3 independent experiments. Compound bioactivity was expressed as EC50, the effective concentration of compound causing 50% parasite death.

T1 sequence (Q8IDJ8 entry or part of it, looked up, natural form): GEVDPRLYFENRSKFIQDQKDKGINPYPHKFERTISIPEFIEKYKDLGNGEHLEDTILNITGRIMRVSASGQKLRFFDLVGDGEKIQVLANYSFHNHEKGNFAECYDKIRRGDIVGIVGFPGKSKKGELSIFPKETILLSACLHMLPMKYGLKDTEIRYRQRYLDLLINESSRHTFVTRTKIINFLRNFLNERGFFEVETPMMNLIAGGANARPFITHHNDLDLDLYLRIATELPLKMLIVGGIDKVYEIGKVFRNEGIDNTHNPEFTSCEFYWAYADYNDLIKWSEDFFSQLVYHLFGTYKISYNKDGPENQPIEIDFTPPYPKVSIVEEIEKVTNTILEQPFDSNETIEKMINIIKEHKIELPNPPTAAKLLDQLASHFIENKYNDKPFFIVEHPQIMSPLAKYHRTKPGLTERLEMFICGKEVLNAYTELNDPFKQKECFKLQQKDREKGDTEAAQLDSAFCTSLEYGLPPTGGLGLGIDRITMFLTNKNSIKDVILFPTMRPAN

For the molecule `O=C(NCC1(O)CCCCC1)c1cc(=O)c2cc(O)ccc2o1` [Example 13, 6-hydroxy-N-[(1-hydroxycyclohexyl)methyl]-4-oxo-chromene-2-carboxamide], the EC50 is 120 nM in test [1], 20000 nM in test [2], 251 nM in test [3] and 50.1 nM in test [5]. For the same molecule, the IC50 in test [4] was 79.4 nM.

For the molecule `Nc1cccc2c(=O)cc(C(=O)NCC3CCCCC3)oc12` [Example 83, 8-Amino-N-(cyclohexylmethyl)-4-oxo-4H-chromene-2-carboxamide], the EC50 was 7940 nM in test [2], 158 nM in test [3] and 20 nM in test [5]. The IC50 in test [4] was 50.1 nM.

`O=C(NCC1CCCCC1)c1cc(=O)c2cccc(O)c2o1` [Example 12, N-(cyclohexylmethyl)-8-hydroxy-4-oxo-chromene-2-carboxamide]: the EC50 is 25100 nM in test [2] and 316 nM in test [3].

Take `O=C(NCC1CCCCC1)c1cc(=O)c2cc(F)ccc2o1` [Example 31, N-(cyclohexylmethyl)-6-fluoro-4-oxo-chromene-2-carboxamide]: the EC50 in test [1] is 631 nM; in test [2] it was 50100 nM; in test [3] it was 126 nM; in test [5] it was 316 nM. Moreover, the IC50 in test [4] was 79.4 nM.

Take `Nc1cc(F)cc2c(=O)cc(C(=O)NCC3CCCCC3)oc12` [Example 99, 8-amino-N-(cyclohexylmethyl)-6-fluoro-4-oxo-chromene-2-carboxamide]: the EC50 in test [1] is 15.8 nM; in test [2], 5010 nM; in test [3], 25.1 nM; in test [5], 10 nM. For the same molecule, the IC50 in test [4] is 50.1 nM.

`O=C(NCC1CCCCC1)c1cc(=O)c2cc(O)ccc2o1` [Example 6, N-(cyclohexylmethyl)-6-hydroxy-4-oxo-chromene-2-carboxamide]: the EC50 in test [1] was 126 nM; in test [2], 15800 nM; in test [3], 20 nM; in test [5], 158 nM. Besides, the IC50 in test [4] was 63.1 nM.

Consider `O=C(NCC1(O)CCCCC1)c1cc(=O)c2cc(F)cc(F)c2o1` [Example 55, 6,8-difluoro-N-[(1-hydroxycyclohexyl)methyl]-4-oxo-chromene-2-carboxamide], for which the EC50 in test [1] is 501 nM; in test [2], 50100 nM; in test [5], 398 nM. Moreover, the IC50 in test [4] is 200 nM.

Consider `CS(=O)(=O)Nc1cccc2c(=O)cc(C(=O)NCC3CCCCC3)oc12` [Example 84, N-(cyclohexylmethyl)-8-(methylsulfonamido)-4-oxo-4H-chromene-2-carboxamide], for which the EC50 in test [1] was 631 nM; in test [2], 50100 nM; in test [5], 316 nM. Also, the IC50 in test [4] is 126 nM.

As to `Nc1cc(F)cc2c(=O)cc(C(=O)NCC3CCC(F)(F)CC3)oc12` [Example 94, 8-amino-N-[(4,4-difluorocyclohexyl)methyl]-6-fluoro-4-oxo-4H-chromene-2-carboxamide], the EC50 in test [3] and in test [5] was 50.1 nM throughout.

Consider `O=C(NCC1(O)CCC(F)(F)CC1)c1cc(=O)c2cc(F)cc(O)c2o1` [Example 76A, N-((4,4-difluoro-1-hydroxycyclohexyl)methyl)-6-fluoro-8-hydroxy-4-oxo-4H-chromene-2-carboxamide], for which the figures for the EC50 in test [1], in test [2] and in test [5] were 3160 nM, 50100 nM and 79.4 nM, respectively. In addition, in test [4], the IC50 was 50.1 nM.

For the molecule `Nc1cc(F)cc2c(=O)cc(C(=O)NCC3CCC(F)(F)C3)oc12` (stereo not drawn) [Example 95, 8-amino-N-[(3,3-difluorocyclopentyl)methyl]-6-fluoro-4-oxo-4H-chromene-2-carboxamide], the EC50 in test [3] is 63.1 nM; in test [5] it was 50.1 nM.
